# Data reported in US12528840B2, “Transcription active complex targeting cancer drug from viral protein sequence” (The Regents of the University of California, priority 2020, dated 2026).
# How the values were obtained:
# Format in all cases: cell-based
# human CD3 T cells = assay: CD3 T cell proliferation after anti-CD3/28 stimulation, flow cytometry; settings: 32 μM, 24 hours after 16 hours anti-CD3/28
# Protocol: To evaluate the effect of the peptide on human CD3 T cells, CD3 T cells were enriched by magnetic beads (CD3 positive selection beads, Stemcell technology) from PBMC samples from 5 healthy donors and stimulated with anti-CD3/28 tetramer (Stemcell technology) in triplicates for 16 hours before treating with PBS, MBK50 (32 μM) and Mutant peptide (32 μM) for 24 hours. Activated proliferating IRF4^+Ki67^+ CD3 T cells (red square in FIG. 5) in the culture were analyzed by live/dead-red staining (Invitrogen) and intracellular staining with anti-Ki67-FITC (Biolegend) and anti-IRF4-APC (Biolegend) antibodies. A representative flow cytometry profiles are shown in FIG. 5(a) for gating live CD3 T cell population and FIG. 5(b) Ki67 vs IRF4 for the gated live CD3 T cells. For FIG. 5(c-e), the means of triplicate cultures in each experiment for live cells % (c, n=5), total CD3 T cell numbers (d, n=5), and % of Ki67^+ cells (e, n=3) are shown in the top panel. The bottom panel are normalized data to PBS control cultures. P values calculated with Prism using one-way ANOVA with paired comparison. p<0.05 statistically significant.
# [1] = tested on: multiple cancer cell lines; assay: MTT assay on multiple cancer cell lines; settings: 0-96 μM; BCBL-1, Ramos, SU-DHL-10, HH, Jurkat, THP-1, U937, A549
# Protocol: (§1) FIG. 6. Viral and cellular responses to K-Rta peptide; identification of VGN50. (a) Protein sequence alignment. FIG. 6(A) The effect of VGN50 on various cancer cell types. MTT assays were performed with the indicated cell lines treated with various VGN50 concentrations. The O.D. of mock-treated samples were set as 100%, and O.D. from detergent treated cells were set as 0%. Percentage viability+/−SD was calculated for each treatment (N=3 samples/treatment). FIG. 6(B) Viability assay with flow cytometry. Cell viability was measured in triplicate with live/dead staining and the cell killing effects on cancer cells was compared with normal peripheral blood mononuclear cells (PBMC) from three healthy donors. Results are presented as percentage viability+/−SD deviation (N=3 samples/group).
# (§2) As shown in FIG. 6(a), multiple cancer cell lines were used for MTT assay to evaluate cancer cell killing efficacies of the MBK50 peptide at different concentrations (cell variability studies). […] Importantly, human peripheral blood mononuclear cells (PBMCs) from healthy donors were approximately 10-fold less sensitive to MBK-mediated killing compared to myeloid and lymphoid cancer cell lines (e.g., THP-1 and BCBL-1) as assessed by flow cytometry after live/dead staining (FIG. 6(b)). […]
# [2] = tested on: human peripheral blood mononuclear cells (PBMCs); assay: Viability by flow cytometry after live/dead staining, PBMC versus cancer cell lines; settings: healthy donor PBMCs vs e.g. THP-1 and BCBL-1
# Protocol: as §1, §2
# BC-1 cells = assay: SLAM-seq, active transcription of cellular genes; settings: 24 μM, 30 min then 4sU 1 hour, BC-1 (FIG. 9: BCBL-1 and BC1)
# Protocol: (§3) FIG. 9. Profiling Peptide targets with Thiol(SH)-linked alkylation for the metabolic sequencing of RNA (SLAM seq). Differences in active transcription in presence of peptide drug was examined. […] Total RNA-sequence performed 24 hours after drug incubation.
# (§4) Thiol(SH)-linked alkylation for the metabolic sequencing of RNA (SLAM seq), an orthogonal-chemistry-based RNA sequencing technology detects 4-thiouridine (s4U) incorporation in RNA species at single-nucleotide resolution. Using SLAM-seq method, BC-1 cells were incubated with peptide drug and peptide with three amino acid substitute to alanine was used as a control peptide. Peptide drug was incubated in BC-1 cell culture (24 μM) and after 30 min drug incubation, 4sU (300 μM in final concentration) was added into culture media for 1 hour. Total RNA was isolated in the end of 1 hour 4sU incubation and alkylated RNA samples were subjected to SLAM-seq. Samples were duplicated and changed gene expression vs mock-treated cells (P<0.05) was marked in red. […] IGV viewer was used to visualize sequence reads at MYC region (Chr. 8). […] Log 2 fold changes and adjusted P-value of MYC down regulation in both BCBL-1 and BC-1 cells are depicted in underneath of panel.
# MYC [3] = assay: SLAM-seq, MYC transcription; settings: 24 μM, 30 min then 4sU 1 hour
# Protocol: as §3, §4
# [4] = tested on: Kaposi's sarcoma-associated herpesvirus (KSHV); assay: Total RNA-sequencing of peptide-resistant KSHV-infected B-cells; settings: continued peptide incubation, resistant cells vs parental cells
# Protocol: FIG. 10. Peptide long-term treatment changes B-cell phenotype. RNA-seq was performed after generating peptide-drug resistant cell population.
# The peptide sequence is based on KSHV transactivator protein sequence, and it is expected that the peptide will compete with viral transactivator protein for recruitment of cellular transactivation complex. We continued to incubate with peptide drug in KSHV-naturally infected B-cells and generated resistant cell line (RC). The resistant cells were then used to identify putative drug targets by comparing parental cells with total RNA-sequencing.
# MYC [5] = assay: Intracellular staining of MYC in LPS-activated THP-1 cells; settings: THP-1, LPS 100 ng/ml, 16 μM, 24 hours
# Description: (§5) FIG. 16. Effect of MBK50 on MYC and IRF4 expression in LPS-activated monocytic leukemia cell line THP-1 cells. […] MYC and IRF4 expression levels were examined by intracellular staining of MYC and IRF4 with isotype control staining followed by flow cytometry. FIG. 16(a) A scheme of the experimental procedure. FIG. 16(b) A representative histogram overlay for the MYC expression in THP-1 cells treated with MBK50, mutant control peptide or PBS, with isotype control. The average mean fluorescent intensity (MFI) for MYC expression (n=3) for each treatment is shown in the right panel. FIG. 16(c) A representative histogram overlay for the IRF4 expression (red) in THP-1 cells treated with MBK50, mutant control peptide, or PBS, with isotype control (blue). The average MFI for IRF4 expression for each treatment is shown in the right panel.
# (§6) MYC is important for monocytic cell proliferation, especially upon LPS stimulation. […] MYC and IRF4 expression levels were examined by intracellular staining of MYC and IRF4 with isotype control staining followed by flow cytometry (FIG. 16a). […] Also, the percentage of THP-1 cells with reduced IRF4 expression was increased by MBK50 treatment compared to mutant control peptide or PBS treatment.
# IRF4 = assay: Intracellular staining of IRF4 in LPS-activated THP-1 cells; settings: THP-1, LPS 100 ng/ml, 16 μM, 24 hours
# Description: as §5, §6
sequence,measurement,setting,value
LSSILQGLYQLDT [MBK50],effect on activated proliferating CD3 T cells,human CD3 T cells,preferentially targets actively dividing cells
same,cancer cell killing efficacy across cell lines,[1],more effective to lymphoid cell lines
same,lower sensitivity of PBMCs to killing compared to myeloid and lymphoid cancer cell lines,[2],approximately 10 fold
same,cellular gene expression (active transcription),BC-1 cells; listed as Wt-peptide,inhibited multiple cellular gene expression
same,cellular gene expression (active transcription),BC-1 cells; listed as peptide drug,strongly inhibited active transcription
same,MYC transcript species containing T→C mutation (Myc transcription),MYC [3],significantly decreased
same,MYC transcript species containing T→C mutation (Myc transcription),MYC [3]; listed as peptide drug,strongly down-regulated
same,latently infected KSHV gene expression,[4],significantly down-regulated
same,MYC expression (MFI),MYC [5],significantly reduced
same,percentage of THP-1 cells with reduced IRF4 expression,IRF4,increased
